Holding throughout (assay): relative viability (nuclei count vs DMSO), 5 days (fraction); higher = more cells survive
Compound in the assay “BI-2536 + Phenformin”: CC[C@@H]1C(=O)N(C)c2cnc(Nc3ccc(C(=O)NC4CCN(C)CC4)cc3OC)nc2N1C1CCCC1 [BI-2536] + N=C(N)NC(=N)NCCc1ccccc1 [Phenformin] (partner 250 µM)
Put shortly:
(§1)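 One day after seeding in 1536-well plates, lung cancer cell lines were dosed by pin tool. Dosing was either single-drug or a fixed anchor-drug dose plus five library-drug doses (not always all listed) in √10 steps. After 5 days, nuclei were stained in one fix-and-stain step and counted on 4× images, and relative viability is the nuclei count of treated wells over that of vehicle wells, given as the median of duplicate plates.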

Compound in the assay “NPK76-II-72-1 + Olaparib”: CC1CC(=O)N(C2=CN=C(N=C2N1C3CCCC3)NC4=C(C=C(C=C4)C(=O)NC5CCN(CC5)C)OC)C [NPK76-II-72-1] + O=C(c1cc(Cc2n[nH]c(=O)c3ccccc23)ccc1F)N1CCN(C(=O)C2CC2)CC1 [Olaparib] (partner 8 µM)
Put shortly:
as §1

Compound in the assay “BI-2536 + Trametinib”: CC[C@@H]1C(=O)N(C)c2cnc(Nc3ccc(C(=O)NC4CCN(C)CC4)cc3OC)nc2N1C1CCCC1 [BI-2536] + CC(=O)Nc1cccc(-n2c(=O)n(C3CC3)c(=O)c3c(Nc4ccc(I)cc4F)n(C)c(=O)c(C)c32)c1 [Trametinib] (partner 0.02 µM)
Put shortly:
as §1

Compound in assay [1]: CC1CC(=O)N(C2=CN=C(N=C2N1C3CCCC3)NC4=C(C=C(C=C4)C(=O)NC5CCN(CC5)C)OC)C [NPK76-II-72-1] + C[C@]1(O)C[C@@H](c2nc(-c3ccc4ccc(-c5ccccc5)nc4c3)c3c(N)nccn32)C1 [Linsitinib] (partner 1 µM)
Put shortly: as §1

Turning to UMC-11, the relative viability with BI-2536 + Phenformin (first compound 0.01 µM) stood at 0.286; in the assay with BI-2536 + Phenformin (first compound 0.03162 µM), 0.233; in the assay with BI-2536 + Phenformin (first compound 0.1 µM), 0.177; with BI-2536 + Phenformin (first compound 0.3162 µM), 0.192; with BI-2536 + Phenformin (first compound 1 µM), 0.175; with NPK76-II-72-1 + Olaparib (first compound 0.01 µM), 0.381. For the same cell line, the relative viability in the assay with NPK76-II-72-1 + Olaparib (first compound 0.03162 µM) is 0.339; in the assay with NPK76-II-72-1 + Olaparib (first compound 0.1 µM), 0.386; with NPK76-II-72-1 + Olaparib (first compound 0.3162 µM), 0.358; in the assay with NPK76-II-72-1 + Olaparib (first compound 1 µM), 0.403; with BI-2536 + Trametinib (first compound 0.01 µM), 0.489; with BI-2536 + Trametinib (first compound 0.03162 µM), 0.637. The relative viability with BI-2536 + Trametinib (first compound 0.1 µM) amounted to 0.173; with BI-2536 + Trametinib (first compound 0.3162 µM), 0.175; with BI-2536 + Trametinib (first compound 1 µM), 0.521; in assay [1] (first compound 0.01 µM), 1; in assay [1] (first compound 0.03162 µM), 1.08; in assay [1] (first compound 0.1 µM), 1. In addition, the values for the relative viability in assay [1] (first compound 0.3162 µM) and in assay [1] (first compound 1 µM) were 0.927 and 0.976, respectively.

For the origin of these results see the supplement of paper PMC10307832.
